Test system: 616215-338-R-J1-PDC spheroids with HUVEC/MSC, viability
Assay: Anticancer human tumor 616215-338-R-J1-PDC patient-derived colon adenocarcinoma cell line growth inhibition [PI3K]
Details: for IC50: curve of first compound; for viability, T/C: stronger effect = lower value
Text: Combinatorial screen of targeted agents with the PI3K inhibitors inavolisib, alpelisib, duvelisib, and copanlisib in multi-cell type tumor spheroids
A high-throughput screen of multi-cell type tumor spheroids was designed to identify active combinations of targeted small molecules and PI3K pathway inhibitors. Complex spheroids include a stromal component modeled by human endothelial cells (HUVEC) and fibroblasts modeled by human mesenchymal stem cells (MSCs). The concentration ranges selected for each drug and investigational agent were based upon clinically achievable concentrations if the clinical Cmax of the agent was known.
Compounds. The drugs and investigational agents: inavolisib (NSC800729), alpelisib (NSC765974), duvelisib (NSC772469), copanlisib (NSC816437), ipatasertib (NSC767898), afuresertib (NSC778305), talazoparib (NSC767125), sapanisertib (NSC764658), selumetinib (NSC741078), tovorafenib (DAY101, NSC766906), vemurafenib (NSC761431), ravoxertinib (NSC781343), sotorasib (NSC818433), MRTX1133 (NSC 836407), abemaciclib (NSC 768073), palbociclib (NSC758247), venetoclax (NSC 766270), SY5609 (NSC837396), enzalutamide (NSC755605), and darolutamide (NSC825331), were obtained from the National Cancer Institute (NCI) Developmental Therapeutics Program Chemical Repository. The FDA-approved anticancer drug set is available from the NCI Developmental Therapeutics Program. […] The stock solutions were prepared in dimethyl sulfoxide (DMSO, Sigma-Aldrich, St. Louis, MO, cat. D2650) at 800-fold the tested concentration and stored at -70 degrees C prior to their use. All drugs and investigational agents were tested over a range starting from a high concentration at or near the clinical Cmax and decreasing in half-log increments. If the clinical Cmax for an agent had not been determined, the highest concentration tested was 10 microM.
Cell Culture. All cells were maintained in an incubator at 37 degrees C and 5% CO2 with 95% humidity. The PDC lines were cultured according to standard operating procedures established by the NCI PDMR (https://pdmr.cancer.gov/sops/default.htm). All PDCs were thawed and cultured in Matrigel-coated flasks prepared with a working solution of 1X Ham's F-12 nutrient mix, without supplementation (Invitrogen, Waltham, MA, cat. 11765054), 100 U/mL penicillin-streptomycin (Invitrogen, cat. 15140122), and 2.5% Matrigel (Corning Inc., Corning, NY, cat. 354248) for the first three passages. The 354836-022-R-J1-PDC, 475296-252-R-J1-PDC, and 997726-040-R-J2-PDC lines were cultured in 6A media, which includes advanced DMEM/F-12 (Thermo Fisher Scientific, cat. 12634028), 10 mM HEPES (Thermo Fisher Scientific, cat. 15630080), 1X GlutaMAX supplement (Thermo Fisher Scientific, cat. 35050061), 0.1 mg/mL primocin (InvivoGen, San Diego, CA, cat. ant-pm-2), 10% defined fetal bovine serum, heat inactivated (HyClone Laboratories Inc., Logan, UT, cat. SH30070.03HI), 50% L-WRN conditioned media (ATCC, cat. CRL-3276), 1.25 mM N-Acetyl-L-cysteine (Sigma-Aldrich, cat. A9165), 10 mM nicotinamide (Sigma-Aldrich, cat. N0636), 1X B-27 supplement (Thermo Fisher Scientific, cat. 17504044), 1X N-2 supplement (Thermo Fisher Scientific, cat. 17502048), and 10 microM Y-27632 dihydrochloride (Tocris Bioscience, Bristol, United Kingdom, cat. 1254). The 624824-186-R-J2-PDC line was cultured in 6C/Colon 1B media, which includes all 6A media components plus 50 ng/mL human EGF recombinant protein (Thermo Fisher Scientific, cat. PHG0311). […]
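Further: spheroids exposed to agents for seven days before the viability read.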

## CC1(C)CCC(CN2CCN(c3ccc(C(=O)NS(=O)(=O)c4ccc(NCC5CCOCC5)c([N+](=O)[O-])c4)c(Oc4cnc5[nH]ccc5c4)c3)CC2)=C(c2ccc(Cl)cc2)C1 + CC(Nc1ccc2c(c1)OCCn1cc(N3C(=O)OCC3C(F)F)nc1-2)C(N)=O
Second compound 0.00316 µM
  IC50: 4.6 µM
Second compound 0.01 µM
  IC50: 4.67 µM
Second compound 0.0316 µM
  IC50: 5.27 µM
Second compound 0.1 µM
  IC50: 5.25 µM
Second compound 0.316 µM
  IC50: 5.43 µM
Second compound 1 µM
  IC50: 5.18 µM
Second compound 0.00316 µM, first compound 0.0316 µM
  viability, T/C: 88.6%
Second compound 0.00316 µM, first compound 0.1 µM
  viability, T/C: 95.9%
Second compound 0.00316 µM, first compound 0.316 µM
  viability, T/C: 104%
Second compound 0.00316 µM, first compound 1 µM
  viability, T/C: 101%
Second compound 0.00316 µM, first compound 3.16 µM
  viability, T/C: 72.8%
Second compound 0.00316 µM, first compound 10 µM
  viability, T/C: 2.83%
Second compound 0.01 µM, first compound 0.0316 µM
  viability, T/C: 92.9%
Second compound 0.01 µM, first compound 0.1 µM
  viability, T/C: 101%
Second compound 0.01 µM, first compound 0.316 µM
  viability, T/C: 99.4%
Second compound 0.01 µM, first compound 1 µM
  viability, T/C: 106%
Second compound 0.01 µM, first compound 3.16 µM
  viability, T/C: 74.5%
Second compound 0.01 µM, first compound 10 µM
  viability, T/C: 2.57%
Second compound 0.0316 µM, first compound 0.0316 µM
  viability, T/C: 90.5%
Second compound 0.0316 µM, first compound 0.1 µM
  viability, T/C: 94.3%
Second compound 0.0316 µM, first compound 0.316 µM
  viability, T/C: 96.6%
Second compound 0.0316 µM, first compound 1 µM
  viability, T/C: 102%
Second compound 0.0316 µM, first compound 3.16 µM
  viability, T/C: 86.9%
Second compound 0.0316 µM, first compound 10 µM
  viability, T/C: 3.65%
Second compound 0.1 µM, first compound 0.0316 µM
  viability, T/C: 105%
Second compound 0.1 µM, first compound 0.1 µM
  viability, T/C: 97.8%
Second compound 0.1 µM, first compound 0.316 µM
  viability, T/C: 102%
Second compound 0.1 µM, first compound 1 µM
  viability, T/C: 93.2%
Second compound 0.1 µM, first compound 3.16 µM
  viability, T/C: 87.9%
Second compound 0.1 µM, first compound 10 µM
  viability, T/C: 1.87%
Second compound 0.316 µM, first compound 0.0316 µM
  viability, T/C: 98.5%
Second compound 0.316 µM, first compound 0.1 µM
  viability, T/C: 86.5%
Second compound 0.316 µM, first compound 0.316 µM
  viability, T/C: 93.5%
Second compound 0.316 µM, first compound 1 µM
  viability, T/C: 102%
Second compound 0.316 µM, first compound 3.16 µM
  viability, T/C: 92.5%
Second compound 0.316 µM, first compound 10 µM
  viability, T/C: 2.04%
Second compound 1 µM, first compound 0.0316 µM
  viability, T/C: 107%
Second compound 1 µM, first compound 0.1 µM
  viability, T/C: 104%
Second compound 1 µM, first compound 0.316 µM
  viability, T/C: 113%
Second compound 1 µM, first compound 1 µM
  viability, T/C: 103%
Second compound 1 µM, first compound 3.16 µM
  viability, T/C: 86.3%
Second compound 1 µM, first compound 10 µM
  viability, T/C: 1.64%
